Where two headings read alike, the source gives them in different places. Each block holds one compound with its values, some of them ahead of it.
Assays:
Parental Ba/F3 cells = test: In vitro viability / Ba/F3 cellular proliferation assay, parental cells; assay type: cell-based; conditions: Mus musculus; for IC50: BaF3
EML4-ALK S1206R tumors = test: Pharmacodynamics: p-ALK in EML4-ALK S1206R tumors in vivo; parameters: species or system mice; conditions: sustained for 24 hrs after single dose of 50 mg/kg
Method: Calibration standards were prepared in blank mouse plasma.

[1] = test system: Ba/F3 EML4-ALK G1269S tumors; test: In vivo efficacy, xenograft of Ba/F3 cells expressing EML4-ALK G1269S; parameters: species or system SCID Beige mice; conditions: 50 and 75 mg/kg, once daily oral gavage
[2] = test system: Ba/F3 EML4-ALK S1206R tumors; test: In vivo efficacy, xenograft of Ba/F3 cells expressing EML4-ALK S1206R; parameters: species or system SCID Beige mice; conditions: 75 mg/kg, once daily oral gavage
[3] = test system: Ba/F3 cells expressing native EML4-ALK; test: Accelerated in vitro mutagenesis screen
[4] = clinical, at MTD; cited from earlier work
[5] = target: Ba/F3 cells expressing EML4-ALK 1151 T insertion (Homo sapiens, UniProt Q9UM73, DUP1151-1151); test: Ba/F3 cellular proliferation assay, EML4-ALK 1151 T insertion; conditions: Table 2
[6] = Table 2, Ba/F3 parental, read-out: IC50

SMILES: COc1cc(N2CCC(N3CCN(C)CC3)CC2)ccc1Nc1ncc(Cl)c(Nc2ccccc2P(C)(C)=O)n1 [Compound 1]
- IC50 (Parental Ba/F3 cells; Table 1, Parental Ba/F3 (IL-3), 72 h, n = 5, read-out: IC50s): 2.19 ± 0.41 µM
- IC50 (Parental Ba/F3 cells; [6]): 4.58 ± 1.55 µM
- p-ALK inhibition (EML4-ALK S1206R tumors): 40-60%
- tumor response in xenograft [1]: complete tumor regression
- tumor response in xenograft [2]: tumor growth inhibition
- mutations recovered ([3]; at 500 nM (S1206R)): only one
- concentration that completely suppressed the emergence of resistance ([3]; mutagenesis screen): 1000 nM
- mutants recovered in the screen ([3]; number of different mutants): ten

SMILES: C[C@@H](Oc1cc(-c2cnn(C3CCNCC3)c2)cnc1N)c1c(Cl)ccc(F)c1Cl [crizotinib]
- inhibition at […] (Parental Ba/F3 cells; BaF3, read-out: inhibition of parental Ba/F3 cell proliferation): > 90%
- IC50 (Parental Ba/F3 cells; [6]): 2.06 ± 0.373 µM
- median Ctrough [4]: ~225 ng/mL

- IC50 [5]: 5.94 ± 2.28 µM
SMILES: COc1cc(N2CCC(N3CCN(C)CC3)CC2)ccc1Nc1ncnc(Nc2ccccc2S(=O)(=O)C(C)C)n1 [ASP3026]
- IC50 (Parental Ba/F3 cells; [6]): > 10 µM

SMILES: CCc1cc2c(cc1N1CCC(N3CCOCC3)CC1)C(C)(C)c1[nH]c3cc(C#N)ccc3c1C2=O [CH5424802]
- IC50 (Parental Ba/F3 cells; [6]): > 10 µM
